Some test systems named below: A549; EKVX; K562; KM12; LOX IMVI; M14; M19-MEL; Malme-3M; NCI-H226; OVCAR-5; SK-MEL-28; SK-MEL-2; SK-MEL-5; SK-OV-3; SW-620; TK-10; MCF7; NCI/ADR-RES.
Assay in all cases: growth of human tumour cells (NCI), 48 h

We go through twelve compounds from ChEMBL document CHEMBL1201862, “PubChem BioAssay data set” (2004).

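Dose response: 5 concentrations. Exposure: 48 h. Format: 96-well plates. Endpoint: linear interpolation; highest concentration if not reached. GI50 is the concentration that inhibits growth by half.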 The source made the active and inactive calls. Cut-off read from the data, not from the text of the source: active = GI50 up to about 1.1 µM and inactive = higher.

`Cc1nc(-n2nc(-c3ccccc3)cc2-c2ccccc2)sc1C(/C=C/c1ccc([N+](=O)[O-])cc1)=N/NC(N)=S`: the GI50 with A549 is 97.3 µM (inactive); in the test on EKVX it was > 100 µM (inactive); with K562 it was 21.6 µM (inactive); in the test with KM12, 21.7 µM (inactive); in the test with LOX IMVI, > 10 µM (inactive); with M14 it was 43 µM (inactive). For the same compound, the GI50 in the test with M19-MEL is 42 µM (inactive); with Malme-3M, > 100 µM (inactive); in the test on NCI-H226, 22.8 µM (inactive); in the test on OVCAR-5, 83.6 µM (inactive); with SK-MEL-28, 91.8 µM (inactive); in the test on SK-MEL-2, 33.9 µM (inactive). The GI50 with SK-MEL-5 was 28.8 µM (inactive); with SK-OV-3, 73.5 µM (inactive); with SW-620, > 10 µM (inactive); with TK-10 it was > 100 µM (inactive).

Consider `O=C(CC1(O)C(=O)Nc2ccccc21)c1ccc(O)cc1` (centres undefined), for which the GI50 with A549, in the test with EKVX, in the test with K562, with KM12, in the test on LOX IMVI and in the test with M14 was > 100 µM (inactive) in each case. In addition, the GI50 was 70.1 µM (inactive) in the test on M19-MEL; > 100 µM (inactive) in the test with Malme-3M; > 100 µM (inactive) in the test on NCI-H226; > 100 µM (inactive) in the test on OVCAR-5; > 100 µM (inactive) in the test on SK-MEL-28; > 100 µM (inactive) with SK-MEL-2. The GI50 in the test on SK-MEL-5, in the test on SK-OV-3, in the test with SW-620 and in the test with TK-10 was > 100 µM (inactive) each time.

Turning to `O=C(CC(=O)N1N=C(c2ccccc2)C(/N=N/c2ccc(C(=O)O)cc2)C1=O)Nc1ccc(F)cc1` (centres undefined), the GI50 with A549 was 39.2 µM (inactive); in the test with EKVX it was 30.1 µM (inactive); with K562, 18.9 µM (inactive); with LOX IMVI, 12.4 µM (inactive); in the test on M14, 38.8 µM (inactive); in the test on M19-MEL, 74 µM (inactive). Further, the GI50 in the test on Malme-3M is 60.7 µM (inactive); in the test with NCI-H226 it was 6.15 µM (inactive); in the test with OVCAR-5 it was 52.1 µM (inactive); in the test on SK-MEL-28, 38.3 µM (inactive); in the test on SK-MEL-2, 17.9 µM (inactive); in the test with SK-MEL-5, 16.7 µM (inactive). For the same compound, the GI50 with SK-OV-3 was 12.2 µM (inactive); in the test with SW-620 it was 59.3 µM (inactive); with TK-10, 33.1 µM (inactive).

As for `CN(/N=C\c1ccnc2ccccc12)c1ccc([N+](=O)[O-])cc1`, the GI50 was > 100 µM (inactive) with A549; > 100 µM (inactive) in the test with EKVX; 25.3 µM (inactive) in the test with K562; 16 µM (inactive) in the test on KM12; 8.2 µM (inactive) with LOX IMVI; 97.1 µM (inactive) in the test on M14. Besides, the GI50 was 65.3 µM (inactive) with M19-MEL; > 100 µM (inactive) in the test on Malme-3M; > 100 µM (inactive) in the test with NCI-H226; > 100 µM (inactive) in the test on OVCAR-5; > 100 µM (inactive) with SK-MEL-28; > 100 µM (inactive) in the test with SK-MEL-2. The GI50 is 53.8 µM (inactive) in the test on SK-MEL-5, > 100 µM (inactive) in the test on SK-OV-3, 65 µM (inactive) in the test with SW-620 and > 100 µM (inactive) in the test on TK-10.

For the compound `CCOC(=O)C(C)N1C(=O)c2ccccc2S1(=O)=O` (centres undefined), the GI50 with A549, with EKVX, in the test on K562, in the test on KM12, in the test with LOX IMVI and with M19-MEL was > 100 µM (inactive) in each case. In addition, the GI50 in the test with MCF7, in the test with Malme-3M, in the test with NCI-H226, in the test on NCI/ADR-RES, in the test with OVCAR-5 and in the test on SK-MEL-28 was > 100 µM (inactive) in each case. Also, the GI50 in the test with SK-MEL-2, in the test on SK-MEL-5, in the test on SK-OV-3 and in the test with SW-620 was > 100 µM (inactive) throughout.

On to `O=C(CCCC(=O)Nc1ccc(Cl)cc1Cl)CC(=O)c1ccc2ccccc2c1`, for which the GI50 in the test on A549, in the test with EKVX, in the test on K562, in the test on KM12, with LOX IMVI and in the test with M14 was > 100 µM (inactive) each time. The GI50 with M19-MEL, with Malme-3M, in the test with NCI-H226, in the test on OVCAR-5, with SK-MEL-28 and in the test with SK-MEL-2 was > 100 µM (inactive) in each case. Moreover, the GI50 with SK-MEL-5, in the test on SK-OV-3, in the test on SW-620 and in the test with TK-10 was > 100 µM (inactive) throughout.

For `C/C=C1/CCC2c3[nH]c4ccccc4c3CCN2C1` (centres undefined), the GI50 with A549 is > 100 µM (inactive); with EKVX, > 100 µM (inactive); in the test on K562, 32 µM (inactive); with KM12, > 100 µM (inactive); in the test on M14 it was 14.4 µM (inactive); in the test with M19-MEL, 86.3 µM (inactive). In addition, the GI50 with Malme-3M is 0.256 µM (active); in the test with NCI-H226, 57.5 µM (inactive); in the test with OVCAR-5 it was > 100 µM (inactive); with SK-MEL-28, > 100 µM (inactive); in the test with SK-MEL-2 it was > 100 µM (inactive); in the test on SK-MEL-5 it was 37.2 µM (inactive). In addition, the GI50 in the test with SK-OV-3, with SW-620 and with TK-10 was > 100 µM (inactive) in each case.

`O=c1nc(-c2ccccc2)c2c3c(cccn13)CCC2`: the GI50 with A549, with K562, with KM12, in the test with LOX IMVI, in the test on M14 and in the test with M19-MEL was > 100 µM (inactive) each time. Moreover, the GI50 in the test with Malme-3M was > 100 µM (inactive); with NCI-H226, 54 µM (inactive); in the test with OVCAR-5, > 100 µM (inactive); with SK-MEL-28, > 100 µM (inactive); in the test on SK-MEL-2, > 100 µM (inactive); in the test with SK-MEL-5, > 100 µM (inactive). In addition, the GI50 with SK-OV-3, with SW-620 and in the test on TK-10 was > 100 µM (inactive) in each case.

As for `Cc1cc(-c2ccccc2)nc(Nc2cc3ccccc3[nH]2)n1`, the GI50 is > 100 µM (inactive) with A549; 89.3 µM (inactive) with EKVX; > 100 µM (inactive) in the test on K562; > 100 µM (inactive) in the test on KM12; > 100 µM (inactive) in the test with LOX IMVI; > 100 µM (inactive) with M14. Moreover, the GI50 in the test with M19-MEL, in the test with Malme-3M, in the test on NCI-H226, in the test with OVCAR-5, in the test on SK-MEL-28 and in the test on SK-MEL-2 was > 100 µM (inactive) throughout. For the same compound, the GI50 in the test with SK-MEL-5, in the test with SK-OV-3, in the test with SW-620 and in the test with TK-10 was > 100 µM (inactive) in each case.

`O=C(O/N=C1/CCC/C1=C\c1ccccc1)c1ccc(Cl)cc1`: the GI50 is 64 µM (inactive) in the test on A549; > 67.3 µM (inactive) with EKVX; > 94.2 µM (inactive) in the test with K562; > 100 µM (inactive) in the test with KM12; > 100 µM (inactive) in the test on LOX IMVI; > 100 µM (inactive) in the test with M14. Besides, the GI50 in the test on M19-MEL is > 100 µM (inactive); in the test on Malme-3M it was > 100 µM (inactive); with NCI-H226, > 95.7 µM (inactive); in the test on OVCAR-5, > 100 µM (inactive); in the test on SK-MEL-28, > 100 µM (inactive); with SK-MEL-2, > 100 µM (inactive). The GI50 in the test on SK-MEL-5 is > 100 µM (inactive); with SK-OV-3, > 70.3 µM (inactive); in the test with SW-620 it was > 100 µM (inactive); with TK-10, 38.9 µM (inactive).

As for `COc1cc(C(C)O)c[n+](Cc2ccccc2)c1` (centres undefined), the GI50 in the test with A549, in the test with EKVX, in the test with K562, in the test with KM12, in the test with LOX IMVI and with M14 was > 100 µM (inactive) each time. For the same compound, the GI50 with M19-MEL, with Malme-3M, in the test on NCI-H226, in the test with OVCAR-5, with SK-MEL-28 and in the test on SK-MEL-2 was > 100 µM (inactive) in each case. Besides, the GI50 in the test with SK-MEL-5, with SK-OV-3, in the test with SW-620 and with TK-10 was > 100 µM (inactive) throughout.

Regarding `CCCCCCCC/C=C\CCCCCCCCCCCC(=O)O` [ERUCIC ACID], the GI50 is 38.5 µM (inactive) in the test on A549; 34 µM (inactive) with EKVX; 22.1 µM (inactive) in the test with K562; 22.3 µM (inactive) in the test on KM12; 29.4 µM (inactive) with LOX IMVI; 26.2 µM (inactive) in the test on M19-MEL. The GI50 in the test with MCF7 is 14.9 µM (inactive); in the test with Malme-3M it was 47.9 µM (inactive); in the test with NCI-H226 it was 52.4 µM (inactive); in the test with NCI/ADR-RES, 86.3 µM (inactive); in the test on OVCAR-5, 102 µM (inactive); in the test with SK-MEL-28 it was 32.7 µM (inactive). Further, the GI50 in the test on SK-MEL-2 is 18 µM (inactive); in the test with SK-MEL-5 it was 18.8 µM (inactive); with SK-OV-3 it was > 85.9 µM (inactive); with SW-620 it was 31.6 µM (inactive).
